Values of other authors in patent US11071785B2, “Liquid formulation of long-lasting protein conjugate comprising the oxyntomodulin and an immunoglobulin Fc region” (HANMI PHARM, CO., LTD, priority 2012, dated 2021).

Legend:
[1] = when administered for 1 year
[2] = in vivo

| Compound | weight reduction effect [1] | side effects reported [2] |
| --- | --- | --- |
| CCCCCCCCCCC[C@@H](C[C@@H]1OC(=O)[C@H]1CCCCCC)OC(=O)[C@H](CC(C)C)NC=O [Orlistat] | about 4 kg |  |
| Cc1c(C(=O)NN2CCCCC2)nn(-c2ccc(Cl)cc2Cl)c1-c1ccc(Cl)cc1 [Rimonabant] |  | disorders of the central nervous system |
| CC(C)CC(N(C)C)C1(c2ccc(Cl)cc2)CCC1 (stereo not shown) [Sibutramine] |  | cardiovascular side effects |
| Contrave |  | cardiovascular side effects |
